What was measured:
NS3/NS4 complexes = NS3/NS4 complexes (Hepatitis C virus genotype 1a, UniProt P27958); test: biochemical; settings: NS3-NS4 activity; 23° C., pH 7.5, 25 μM NS4A peptide; read-out: IC50
Description: NS3-NS4 inhibition activity can be determined using known assay methods. For example, NS3/NS4 complexes may be formed and inhibitory concentrations of test compounds determined as described in U.S. Patent Application Publication Number 2007/0054842 paragraph numbers 1497-1509, which is incorporated herein by reference in its entirety. Similarly, hepatitis C replicon EC50 may be determined using known assay methods such as described in U.S. Patent Application Publication Number 2007/0054842 paragraph numbers 1510-1515, which is incorporated herein by reference in its entirety. Assays may be conducted at ambient temperature (23° C.) in assay buffer containing 50 mM Tris-HCl, pH 7.5, 15% glycerol, 0.6 mM Lauryldimethylamine Oxide (LDAO), 25 μM NS4A peptide, and 10 mM Dithiothreitol (DTT).

hepatitis C replicon = hepatitis C replicon EC50 assay; assay type: cell-based; settings: Hepatitis C virus; hepatitis C replicon; read-out: EC50
Description: NS3-NS4 inhibition activity can be determined using known assay methods.

Chain of NS3/NS4 complexes (P27958 1027-1657, one chain of several): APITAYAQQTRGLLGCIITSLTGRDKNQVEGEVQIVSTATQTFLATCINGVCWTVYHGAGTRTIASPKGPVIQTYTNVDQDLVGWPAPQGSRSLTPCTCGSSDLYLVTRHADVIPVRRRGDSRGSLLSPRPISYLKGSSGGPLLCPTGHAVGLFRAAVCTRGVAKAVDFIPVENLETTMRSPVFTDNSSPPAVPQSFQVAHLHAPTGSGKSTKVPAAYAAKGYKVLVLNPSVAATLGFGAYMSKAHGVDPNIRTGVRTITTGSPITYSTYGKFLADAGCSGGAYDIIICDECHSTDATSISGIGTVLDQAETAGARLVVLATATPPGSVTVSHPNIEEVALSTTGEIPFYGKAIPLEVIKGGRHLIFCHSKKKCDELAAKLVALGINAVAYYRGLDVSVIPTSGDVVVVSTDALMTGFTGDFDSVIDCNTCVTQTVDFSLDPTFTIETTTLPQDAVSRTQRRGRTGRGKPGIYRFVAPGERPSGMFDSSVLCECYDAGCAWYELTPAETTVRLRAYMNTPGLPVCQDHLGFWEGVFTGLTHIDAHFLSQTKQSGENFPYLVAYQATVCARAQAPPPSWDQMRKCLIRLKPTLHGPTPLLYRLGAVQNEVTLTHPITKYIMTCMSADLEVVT

SMILES | IC50 (NS3/NS4 complexes) | EC50 (hepatitis C replicon)
CC(C)n1c(O[C@@H]2C[C@H]3C(=O)N[C@]4(C(=O)NS(=O)(=O)N(C)C)C[C@H]4/C=C\CCCCC[C@H](NC(=O)OC(C)(C)C)C(=O)N3C2)nc2c(-c3nc(-c4ccc(F)c(C(F)(F)F)c4)cs3)cccc21 [Compound 135] | < 10 nM | > 100 nM
CC(C)n1c(O[C@@H]2C[C@H]3C(=O)N[C@]4(C(=O)NS(=O)(=O)N(C)C)C[C@H]4/C=C\CCCCC[C@H](NC(=O)OC(C)(C)C)C(=O)N3C2)nc2c(-c3nc(-c4ccc(OC(F)(F)F)cc4)cs3)cccc21 [Compound 136] | < 10 nM | > 100 nM
CC(C)n1c(O[C@@H]2C[C@H]3C(=O)N[C@]4(C(=O)NS(=O)(=O)N(C)C)C[C@H]4/C=C\CCCCC[C@H](NC(=O)OC(C)(C)C)C(=O)N3C2)nc2c(-c3nc(-c4ccc(Br)cc4)cs3)cccc21 [Compound 137] | < 10 nM | > 100 nM
CC(C)n1c(O[C@@H]2C[C@H]3C(=O)N[C@]4(C(=O)NS(=O)(=O)N(C)C)C[C@H]4/C=C\CCCCC[C@H](NC(=O)OC(C)(C)C)C(=O)N3C2)nc2c(-c3nc(-c4ccc(Cl)c(Cl)c4)cs3)cccc21 [Compound 138] | < 10 nM | > 100 nM
CC(C)n1c(O[C@@H]2C[C@H]3C(=O)N[C@]4(C(=O)NS(=O)(=O)N(C)C)C[C@H]4/C=C\CCCCC[C@H](NC(=O)OC(C)(C)C)C(=O)N3C2)nc2c(-c3nc(-c4ccc(F)cc4F)cs3)cccc21 [Compound 139] | < 10 nM | 10 to 100 nM
CC(C)n1c(O[C@@H]2C[C@H]3C(=O)N[C@]4(C(=O)NS(=O)(=O)N(C)C)C[C@H]4/C=C\CCCCC[C@H](NC(=O)OC(C)(C)C)C(=O)N3C2)nc2c(-c3nc(-c4ccc(F)c(F)c4)cs3)cccc21 [Compound 140] | < 10 nM | < 10 nM
CC(C)n1c(O[C@@H]2C[C@H]3C(=O)N[C@]4(C(=O)NS(=O)(=O)N(C)C)C[C@H]4/C=C\CCCCC[C@H](NC(=O)OC(C)(C)C)C(=O)N3C2)nc2c(-c3nc(-c4ccc(C(F)(F)F)cc4)cs3)cccc21 [Compound 141] | < 10 nM | > 100 nM
CC(C)n1c(O[C@@H]2C[C@H]3C(=O)N[C@]4(C(=O)NS(=O)(=O)N(C)C)C[C@H]4/C=C\CCCCC[C@H](NC(=O)OC(C)(C)C)C(=O)N3C2)nc2c(-c3nc(-c4ccc5c(c4)OCCO5)cs3)cccc21 [Compound 142] | < 10 nM | 10 to 100 nM
CC(C)n1c(O[C@@H]2C[C@H]3C(=O)N[C@]4(C(=O)NS(=O)(=O)N(C)C)C[C@H]4/C=C\CCCCC[C@H](NC(=O)OC(C)(C)C)C(=O)N3C2)nc2c(-c3nc(-c4ccc(C(C)(C)C)cc4)cs3)cccc21 [Compound 143] | < 10 nM | 10 to 100 nM
Cc1cccc(Cc2csc(-c3cccc4c3nc(O[C@@H]3C[C@H]5C(=O)N[C@]6(C(=O)NS(=O)(=O)N(C)C)C[C@H]6/C=C\CCCCC[C@H](NC(=O)OC(C)(C)C)C(=O)N5C3)n4C(C)C)n2)c1 [Compound 144] | < 10 nM | < 10 nM
Cc1ccc(Cc2csc(-c3cccc4c3nc(O[C@@H]3C[C@H]5C(=O)N[C@]6(C(=O)NS(=O)(=O)N(C)C)C[C@H]6/C=C\CCCCC[C@H](NC(=O)OC(C)(C)C)C(=O)N5C3)n4C(C)C)n2)cc1 [Compound 146] | < 10 nM | < 10 nM
COc1ccccc1Cc1csc(-c2cccc3c2nc(O[C@@H]2C[C@H]4C(=O)N[C@]5(C(=O)NS(=O)(=O)N(C)C)C[C@H]5/C=C\CCCCC[C@H](NC(=O)OC(C)(C)C)C(=O)N4C2)n3C(C)C)n1 [Compound 147] | < 10 nM | < 10 nM
CC(C)c1ccc(Cc2csc(-c3cccc4c3nc(O[C@@H]3C[C@H]5C(=O)N[C@]6(C(=O)NS(=O)(=O)N(C)C)C[C@H]6/C=C\CCCCC[C@H](NC(=O)OC(C)(C)C)C(=O)N5C3)n4C(C)C)n2)cc1 [Compound 148] | < 10 nM | 10 to 100 nM
CC(C)n1c(O[C@@H]2C[C@H]3C(=O)N[C@]4(C(=O)NS(=O)(=O)N(C)C)C[C@H]4/C=C\CCCCC[C@H](NC(=O)OC(C)(C)C)C(=O)N3C2)nc2c(-c3nc(Cc4cccc(C(F)(F)F)c4)cs3)cccc21 [Compound 149] | < 10 nM | 10 to 100 nM
CC(C)n1c(O[C@@H]2C[C@H]3C(=O)N[C@]4(C(=O)NS(=O)(=O)N(C)C)C[C@H]4/C=C\CCCCC[C@H](NC(=O)OC(C)(C)C)C(=O)N3C2)nc2c(-c3nc(Cc4cccc(OC(F)(F)F)c4)cs3)cccc21 [Compound 150] | < 10 nM | 10 to 100 nM
CC(C)n1c(O[C@@H]2C[C@H]3C(=O)N[C@]4(C(=O)NS(=O)(=O)N(C)C)C[C@H]4/C=C\CCCCC[C@H](NC(=O)OC(C)(C)C)C(=O)N3C2)nc2c(-c3nc(Cc4ccc(Cl)cc4)cs3)cccc21 [Compound 151] | < 10 nM | < 10 nM
COc1cccc(Cc2csc(-c3cccc4c3nc(O[C@@H]3C[C@H]5C(=O)N[C@]6(C(=O)NS(=O)(=O)N(C)C)C[C@H]6/C=C\CCCCC[C@H](NC(=O)OC(C)(C)C)C(=O)N5C3)n4C(C)C)n2)c1 [Compound 152] | < 10 nM | < 10 nM

SMILES | IC50 (NS3/NS4 complexes) | EC50 (hepatitis C replicon)
CC(C)n1c(O[C@@H]2C[C@H]3C(=O)N[C@]4(C(=O)NS(=O)(=O)N(C)C)C[C@H]4/C=C\CCCCC[C@H](NC(=O)OC(C)(C)C)C(=O)N3C2)nc2c(-c3nc(Cc4cccc(Br)c4)cs3)cccc21 [Compound 153] | < 10 nM | 10 to 100 nM
CC(C)n1c(O[C@@H]2C[C@H]3C(=O)N[C@]4(C(=O)NS(=O)(=O)N(C)C)C[C@H]4/C=C\CCCCC[C@H](NC(=O)OC(C)(C)C)C(=O)N3C2)nc2c(-c3nc(Cc4ccc(-c5ccccc5)cc4)cs3)cccc21 [Compound 154] | < 10 nM | 10 to 100 nM
CC(C)n1c(O[C@@H]2C[C@H]3C(=O)N[C@]4(C(=O)NS(=O)(=O)N(C)C)C[C@H]4/C=C\CCCCC[C@H](NC(=O)OC(C)(C)C)C(=O)N3C2)nc2c(-c3nc(Cc4ccc(OC(F)(F)F)cc4)cs3)cccc21 [Compound 155] | < 10 nM | 10 to 100 nM
CC(C)n1c(O[C@@H]2C[C@H]3C(=O)N[C@]4(C(=O)NS(=O)(=O)N(C)C)C[C@H]4/C=C\CCCCC[C@H](NC(=O)OC(C)(C)C)C(=O)N3C2)nc2c(-c3nc(Cc4ccccc4F)cs3)cccc21 [Compound 156] | < 10 nM | < 10 nM
COc1ccc(Cc2csc(-c3cccc4c3nc(O[C@@H]3C[C@H]5C(=O)N[C@]6(C(=O)NS(=O)(=O)N(C)C)C[C@H]6/C=C\CCCCC[C@H](NC(=O)OC(C)(C)C)C(=O)N5C3)n4C(C)C)n2)cc1 [Compound 157] | < 10 nM | < 10 nM
CC(C)n1c(O[C@@H]2C[C@H]3C(=O)N[C@]4(C(=O)NS(=O)(=O)N(C)C)C[C@H]4/C=C\CCCCC[C@H](NC(=O)OC(C)(C)C)C(=O)N3C2)nc2c(-c3csc(N4CCCC4)n3)cccc21 [Compound 158] | < 10 nM | < 10 nM
CC(C)n1c(O[C@@H]2C[C@H]3C(=O)N[C@]4(C(=O)NS(=O)(=O)N(C)C)C[C@H]4/C=C\CCCCC[C@H](NC(=O)OC(C)(C)C)C(=O)N3C2)nc2c(-c3cnccn3)cccc21 [Compound 159] | < 10 nM | < 10 nM
CC(C)n1c(O[C@@H]2C[C@H]3C(=O)N[C@]4(C(=O)NS(=O)(=O)N(C)C)C[C@H]4/C=C\CCCCC[C@H](NC(=O)OC(C)(C)C)C(=O)N3C2)nc2c(-c3csc(N4CCN(C)CC4)n3)cccc21 [Compound 160] | < 10 nM | < 10 nM
CC(C)n1c(O[C@@H]2C[C@H]3C(=O)N[C@]4(C(=O)NS(=O)(=O)N(C)C)C[C@H]4/C=C\CCCCC[C@H](NC(=O)OC(C)(C)C)C(=O)N3C2)nc2c(-c3cncnc3)cccc21 [Compound 161] | < 10 nM | < 10 nM
CC(C)n1c(O[C@@H]2C[C@H]3C(=O)N[C@]4(C(=O)NS(=O)(=O)N(C)C)C[C@H]4/C=C\CCCCC[C@H](NC(=O)OC(C)(C)C)C(=O)N3C2)nc2c(-c3cncc(N4CCCC4)n3)cccc21 [Compound 162] | < 10 nM | < 10 nM
CC(C)n1c(O[C@@H]2C[C@H]3C(=O)N[C@]4(C(=O)NS(=O)(=O)N(C)C)C[C@H]4/C=C\CCCCC[C@H](NC(=O)OC(C)(C)C)C(=O)N3C2)nc2c(-c3cscn3)cccc21 [Compound 163] | < 10 nM | < 10 nM
CC(C)n1c(O[C@@H]2C[C@H]3C(=O)N[C@]4(C(=O)NS(=O)(=O)N(C)C)C[C@H]4/C=C\CCCCC[C@H](NC(=O)OC(C)(C)C)C(=O)N3C2)nc2c(-c3csc(-c4ccc(F)c(F)c4)n3)cccc21 [Compound 164] | 10 to 100 nM | > 100 nM
CC(C)n1c(O[C@@H]2C[C@H]3C(=O)N[C@]4(C(=O)NS(=O)(=O)C5(C)CC5)C[C@H]4/C=C\CCCCC[C@H](NC(=O)OC4CCCC4)C(=O)N3C2)nc2c(-c3nc(Cc4ccccc4)cs3)cccc21 [Compound 165] | < 10 nM | < 10 nM
CC(C)n1c(O[C@@H]2C[C@H]3C(=O)N[C@]4(C(=O)NS(=O)(=O)C5(C)CC5)C[C@H]4/C=C\CCCCC[C@H](NC(=O)O[C@@H]4C[C@@H]5C[C@@H]5C4)C(=O)N3C2)nc2c(-c3nc(Cc4ccccc4)cs3)cccc21 [Compound 166] | < 10 nM | < 10 nM
Cc1ccc2c(nc(O[C@@H]3C[C@H]4C(=O)N[C@]5(C(=O)NS(=O)(=O)N(C)C)C[C@H]5/C=C\CCCCC[C@H](NC(=O)OC(C)(C)C)C(=O)N4C3)n2C(C)C)c1-c1nc(C(C)C)cs1 [Compound 167] | < 10 nM | 10 to 100 nM
Cc1ccc2c(nc(O[C@@H]3C[C@H]4C(=O)N[C@]5(C(=O)NS(=O)(=O)N(C)C)C[C@H]5/C=C\CCCCC[C@H](NC(=O)OC(C)(C)C)C(=O)N4C3)n2C(C)C)c1-c1nc(C2CCCC2)cs1 [Compound 168] | < 10 nM | 10 to 100 nM
